The values below come from US20170044230A1 (USTAV ORGANICKE CHEMIE A BIOCHEMIE AV CR, V.V.I., priority 2014, published 2017).

“Also recorded” adds a separate entry of the source. Non-standard residues stand in square brackets, D forms with d. Residues, ends and D or L forms follow the SMILES beside them. *: point of attachment. Myristoyl = CCCCCCCCCCCCCC(=O)*; Cha = N[C@@H](CC1CCCCC1)C(=O)O; Dap = NC[C@H](N)C(=O)O; Sar = CNCC(=O)O

The target in one data set is T1, human GHS-R1a receptor (Homo sapiens, UniProt Q92847).
T1 construct: purchased Multispan, Hayward, Calif., USA; host or cells: HEK293T cells, isolated plasma membranes
T1 sequence (Q92847 whole entry): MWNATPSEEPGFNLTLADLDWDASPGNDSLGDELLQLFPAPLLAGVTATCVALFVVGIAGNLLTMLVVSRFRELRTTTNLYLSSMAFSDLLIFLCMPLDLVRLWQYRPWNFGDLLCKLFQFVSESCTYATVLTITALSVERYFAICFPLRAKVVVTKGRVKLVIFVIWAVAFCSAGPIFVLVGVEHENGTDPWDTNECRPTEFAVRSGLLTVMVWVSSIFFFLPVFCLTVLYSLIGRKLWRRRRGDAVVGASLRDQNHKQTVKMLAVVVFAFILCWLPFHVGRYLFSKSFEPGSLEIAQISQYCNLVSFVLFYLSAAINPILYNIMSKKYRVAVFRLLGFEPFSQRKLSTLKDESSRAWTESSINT
The experiment in a line: Competitive binding studies (displacement of 125I-ghrelin). The settings on record: relative to ghrelin = 100. On the procedure:
Isolated plasma membranes from the HEK293T cells with transfected human GHS-R1a receptor (Multispan, Hayward, Calif., USA) were used. […] Experiments were carried out in duplicates at least three times. Competitive binding curves were plotted using GraphPad Prism Software (San Diego, Calif., USA) while comparing the best fit for single binding sites models.

In data set [1] the test system is rat model of aortic stenosis-induced cachexia. The experiment in a line: Rat model of aortic stenosis-induced cachexia. The settings on record: 28-day continuous IP infusion. In kind it is in vivo. On the procedure: Cachexia induced through the aortic stenosis (AS) was made in male Wistar rats, aged 8-9 months (Harlan, Italy). Rats were housed at a temperature of 22±2° C. under a daily cycle of 12/12 h light/dark (light from 6:00) with free access to water and a standard chow diet (Altromin, Germany).
The animals were anesthetized with isoflurane and the aortic stenosis was induced via abdominal incision. […] A steel wire (diameter 0.4 mm) was placed alongside the isolated aorta, both were gently tightened with a stitch (3-0 silk tread), and the wire was removed accordingly. […] Finally, the abdomen was sutured and the animals were kept in standard conditions with free access to regular rat chow and water ad libitum. The Sham group consisted of sham-operated rats prepared by a similar surgical treatment without aortic stenosis.
Mortality was about 5% within 72 h after stenosis. All animal experiments were approved by the Institutional Animal Experimental Ethics Committee of the Institute of Physiology AS CR. […] 2 dissolved in vehicle (2.5 mg/kg of body weight per day) for 28 days (n=5). Food intake and body weight of the rats was monitored every day.

Data set [2] has as its system rat model of subtotal nephrectomy. The experiment in a line: Rat model of renal cachexia (subtotal nephrectomy, SNx). In kind it is in vivo. On the procedure: Male F344 rats (Harlan, Italy) were housed at a temperature of 22±2° C. under a daily cycle of 12/12 h light/dark (light from 6:00) with free access to water and a standard chow diet St-1 (Mlýn Kocanda, Praha, Czech Republic).
To induce renal dysfunction, 5/6 nephrectomy was performed to anesthetized 8-week-old rats (SNx group, n=14); the control group was sham-operated (Sham group, n=6). Starting from the following day, the rats were SC injected with saline or ghrelin analog no. 2 (5 mg/kg of body weight, dissolved in saline) for 15 days. Food intake and body weight of the rats was monitored every day. At the end of the experiment, blood was collected for determination of pro-inflammatory cytokines using the Milliplex MAP Rat Cytokine/Chemokine Magnetic Bead Panel (Merck-Millipore, St. Charles, Mo., USA).

A further data set deals with fed C57BL/6 male mice. Kind of data set: Effect of SC administered ghrelin analogs on food intake. The settings on record: for maximal effect at 5 mg/kg on food intake: SC 5 mg/kg, evaluated 480 min after administration; for ED50 (250 min after injection), effect on food intake: SC, fed mice. In kind it is in vivo. The protocol: All of the experiments followed the ethical guidelines for animal experiments and Czech Republic law 246/1992 and were approved by the committee for experiments with laboratory animals of the Academy of Sciences of the Czech Republic. Male C57BL/6 mice (Charles River, Germany) were housed at a temperature 22±2° C. under a daily cycle of 12/12 h light/dark (light from 6:00) with free access to water and a standard chow diet St-1 which contained […] of calories from protein, fat and carbohydrate, respectively, and its energy content was 3.4 kcal/g (Mlýn Kocanda, Praha, Czech Republic). Mice were placed into separate cages for one week before experiment, they had free access to water and food pellets. Closely before the experiment, the food pellets were removed from the cages. […] 15 min after the injection, mice were given preweighed food pellets. Food intake was monitored for 8-10 hours at 30-min intervals. Mice had free access to water during the experiment. Experiments were performed at least twice for each tested compound, each experimental group had at least 5 mice.
Data from food intake experiments were analyzed by one-way ANOVA followed by Dunnett's post-hoc test using GraphPad Prism Software (San Diego, Calif., USA), P<0.05 was considered statistically significant. ED50 values were calculated using GraphPad Prism Software as the dose of the tested compound required to elicit half-maximal effect at 250 min after administration of the corresponding compound.
Food intake was monitored for […] after administration of the compounds. ED50 values were determined 250 min after administration. Maximal effect on food intake was evaluated […] after administration of the compounds at a dose of 5 mg/kg of body weight. NT—not tested.

The nature of data set [3]: Pharmacokinetics in vivo after SC administration to mice. The settings on record: SC 5 mg/kg. On the procedure: Mice were housed at a temperature 22±2° C. under a daily cycle of 12/12 h light/dark (light from 6:00) with free access to water and a standard chow diet St-1 (Mlýn Kocanda, Praha, Czech Republic).
4, 6, 14 and 18 at a dose of 5 mg/kg of body weight (0.2 ml/mouse, n=4). Blood was collected from tails before injection and 0.5, 1, 2, 4, 8, 16 and 24 h after injection. Plasma was separated and stored at −20° C.

[4] abbreviates: 15-day SC 5 mg/kg, vs SNx/saline, 5 mg/kg.

Consider `CCCCCCCCCCCCCC(=O)NC[C@H](NC(=O)[C@H](CO)NC(=O)CNC)C(=O)N[C@@H](Cc1ccccc1)C(=O)N[C@@H](CC(C)C)C(=O)N[C@@H](CO)C(=O)N1CCC[C@H]1C(=O)N[C@@H](CCC(=O)O)C(=O)N[C@@H](Cc1c[nH]cn1)C(=O)N[C@@H](CCC(N)=O)C(=O)N[C@@H](CCCCN)C(=O)N[C@@H](C)C(=O)N[C@@H](CCC(N)=O)C(=O)N[C@@H](CCC(N)=O)C(=O)N[C@@H](CCCNC(=N)N)C(=O)N[C@@H](CCCCN)C(=O)N[C@@H](CCC(=O)O)C(=O)N[C@@H](CO)C(=O)N[C@@H](CCCCN)C(=O)N[C@@H](CCCCN)C(=O)N1CCC[C@H]1C(=O)N1CCC[C@H]1C(=O)N[C@@H](C)C(=O)N[C@@H](CCCCN)C(=O)N[C@@H](CC(C)C)C(=O)N[C@@H](CCC(N)=O)C(=O)N1CCC[C@H]1C(=O)N[C@@H](CCCNC(=N)N)C(=O)O` [Analog 2], for which the “% of ghrelin binding” value on human GHS-R1a receptor is reported as 54%. In data set [1], the cachectic state entry was “improved the cachectic state”. Also, the “body weight of AS rats” value in data set [1] (2.5 mg/kg per day) was “significantly increased body weight”. The “levels of anti-inflammatory cytokine IL-10 (in words)” value in data set [2] (15-day SC 5 mg/kg, vs SNx/saline) is given as “significantly increased”. For the same compound, in data set [2] (setting [4]), the “body weight of SNx rats” value is “significantly increased body weight” and the “levels of pro-inflammatory cytokines (in words)” value is reported as “significantly decreased levels of these cytokines; also recorded: reduced blood levels of pro-inflammatory cytokines”. For the same compound, the cachectic state entry in data set [2] (repeated SC administration, SNx rats) is listed as “improved the cachectic state”. Further, in the data set on fed C57BL/6 male mice, the “maximal effect at 5 mg/kg on food intake” value is on record as 202.7 % of Dpr^3ghr and the “ED50 (250 min after injection), effect on food intake” value (“ED50 (250 min after injection)” for short) amounted to 3.80 mg/kg.
The half-life is the time in which the quantity being followed falls by half. Read a high half-life as slow decline. In the case of `CCCCCCCCCCCCCC(=O)NC[C@H](NC(=O)[C@H](CO)NC(=O)CNC)C(=O)N[C@@H](CC1CCCCC1)C(=O)N[C@@H](CC(C)C)C(=O)N[C@@H](CO)C(=O)N1CCC[C@H]1C(=O)N[C@@H](CCC(=O)O)C(=O)N[C@@H](Cc1c[nH]cn1)C(=O)N[C@@H](CCC(N)=O)C(=O)N[C@@H](CCCCN)C(=O)N[C@@H](C)C(=O)N[C@@H](CCC(N)=O)C(=O)N[C@@H](CCC(N)=O)C(=O)N[C@@H](CCCNC(=N)N)C(=O)N[C@@H](CCCCN)C(=O)N[C@@H](CCC(=O)O)C(=O)N[C@@H](CO)C(=O)N[C@@H](CCCCN)C(=O)N[C@@H](CCCCN)C(=O)N1CCC[C@H]1C(=O)N1CCC[C@H]1C(=O)N[C@@H](C)C(=O)N[C@@H](CCCCN)C(=O)N[C@@H](CC(C)C)C(=O)N[C@@H](CCC(N)=O)C(=O)N1CCC[C@H]1C(=O)N[C@@H](CCCNC(=N)N)C(=O)O` [Analog 6] (H-[Sar]S[Dap](Myristoyl)[Cha]LSPEHQKAQQRKESKKPPAKLQPR-OH; N-terminus and C-terminus assumed), the “% of ghrelin binding” value at human GHS-R1a receptor is reported as 18%. Further, the “stability in vivo compared with ghrelin or Dpr^3ghrelin” value in data set [3] was “significantly more stable than ghrelin or Dpr^3ghrelin”. In data set [3] (male, C57BL/6, mouse, plasma), this compound showed a half-life of 7 h. Moreover, in the data set with fed C57BL/6 male mice, the “maximal effect at 5 mg/kg on food intake” value is recorded as 276.2 % of Dpr^3ghr and the “ED50 (250 min after injection)” value amounted to 3.05 mg/kg.
Turning to `CCCCCCCCCCCCCC(=O)NC[C@H](NC(=O)[C@H](CO)NC(=O)CNC)C(=O)N[C@@H](Cc1ccccc1)C(=O)N[C@@H](CC(C)C)C(=O)N[C@@H](CO)C(=O)N1CCC[C@H]1C(=O)N[C@@H](CCC(=O)O)C(=O)N[C@@H](Cc1c[nH]cn1)C(=O)N[C@@H](CCC(N)=O)C(=O)N[C@@H](CCCCN)C(=O)N[C@@H](C)C(=O)N[C@@H](CCC(N)=O)C(=O)N[C@@H](CCC(N)=O)C(=O)N[C@@H](CCCNC(=N)N)C(=O)N[C@@H](CCCCN)C(=O)N[C@@H](CCC(=O)O)C(=O)N[C@@H](CO)C(=O)O` [Analog 18] (H-[Sar]S[Dap](Myristoyl)FLSPEHQKAQQRKES-OH), the “stability in vivo compared with ghrelin or Dpr^3ghrelin” value in data set [3] is given as “significantly more stable than ghrelin or Dpr^3ghrelin”.
As to `CCCCCCCC(=O)NC[C@H](NC(=O)[C@H](CO)NC(=O)CN)C(=O)N[C@@H](Cc1ccccc1)C(=O)N[C@@H](CC(C)C)C(=O)N[C@@H](CO)C(=O)N1CCC[C@H]1C(=O)N[C@@H](CCC(=O)O)C(=O)N[C@@H](Cc1c[nH]cn1)C(=O)N[C@@H](CCC(N)=O)C(=O)N[C@@H](CCCCN)C(=O)N[C@@H](C)C(=O)N[C@@H](CCC(N)=O)C(=O)N[C@@H](CCC(N)=O)C(=O)N[C@@H](CCCNC(=N)N)C(=O)N[C@@H](CCCCN)C(=O)N[C@@H](CCC(=O)O)C(=O)N[C@@H](CO)C(=O)N[C@@H](CCCCN)C(=O)N[C@@H](CCCCN)C(=O)N1CCC[C@H]1C(=O)N1CCC[C@H]1C(=O)N[C@@H](C)C(=O)N[C@@H](CCCCN)C(=O)N[C@@H](CC(C)C)C(=O)N[C@@H](CCC(N)=O)C(=O)N1CCC[C@H]1C(=O)N[C@@H](CCCNC(=N)N)C(=O)O` [Dpr^3ghrelin, reference compound], the “% of ghrelin binding” value at human GHS-R1a receptor is recorded as 169%. Moreover, in the data set on fed C57BL/6 male mice, the “maximal effect at 5 mg/kg on food intake” value is 100 % of Dpr^3ghr and the “ED50 (250 min after injection)” value was found to be 0.82 mg/kg.
For the compound “(Sar)S(Dpr-N-myr)FLSPEHQKAQQRKESKKPPAKLQPR (XSXFLSPEHQKAQQRKESKKPPAKLQPR; Sar N-terminus; myristoylated Dpr; ghrelin analog) [Analog 2]”, in data set [2] (SNx rats, 15-day SC 5 mg/kg), the “IL-1α in blood plasma” value is 392.3 ± 49.5 pg/mL, the “IL-2 in blood plasma” value was found to be 28.1 ± 9.3 pg/mL, the “IL-6 in blood plasma” value came out at 337.3 ± 62.8 pg/mL and the “IL-10 in blood plasma” value was 150.7 ± 6.2 pg/mL. The “TNF-α in blood plasma” value in data set [2] (SNx rats, 15-day SC 5 mg/kg) is 32.6 ± 3.8 pg/mL.
